From ChEMBL document CHEMBL1201862, “PubChem BioAssay data set” (2004)
The source made the active and inactive calls.

Columns and labels:
[1] = biological target: T1, Zinc finger protein mex-5 (Caenorhabditis elegans, UniProt Q9XUB2); assay: potency of MEX-5 RNA-binding blockers – biochemical, C. elegans, fluorescence polarization, dose response (AID 1960)
T1 sequence (Q9XUB2 whole entry): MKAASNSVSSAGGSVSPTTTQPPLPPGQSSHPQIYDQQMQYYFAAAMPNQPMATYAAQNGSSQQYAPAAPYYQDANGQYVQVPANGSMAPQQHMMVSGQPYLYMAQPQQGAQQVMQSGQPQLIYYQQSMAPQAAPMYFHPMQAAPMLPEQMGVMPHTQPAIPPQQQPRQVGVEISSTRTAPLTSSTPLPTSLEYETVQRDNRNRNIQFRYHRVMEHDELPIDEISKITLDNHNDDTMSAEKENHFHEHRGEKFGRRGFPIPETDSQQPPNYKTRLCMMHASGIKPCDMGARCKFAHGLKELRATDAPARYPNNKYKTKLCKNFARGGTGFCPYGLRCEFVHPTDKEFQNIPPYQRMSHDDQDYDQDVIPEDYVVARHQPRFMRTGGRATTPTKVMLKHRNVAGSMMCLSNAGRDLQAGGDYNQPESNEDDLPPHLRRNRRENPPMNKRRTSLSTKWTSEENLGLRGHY

[2] = biological target: T2, Endoribonuclease toxin MazF (Escherichia coli K-12, UniProt P0AE70); assay: activation of MazEF endoribonuclease cleavage – biochemical, fluorescence, single-stranded RNA substrate, uHTS hits, dose response (AID 588481); assay type: functional
T2 sequence (P0AE70 whole entry): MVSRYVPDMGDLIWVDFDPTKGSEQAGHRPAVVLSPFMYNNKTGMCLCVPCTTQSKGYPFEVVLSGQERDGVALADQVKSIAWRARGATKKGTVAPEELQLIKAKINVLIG

[3] = biological target: Neurotensin receptor type 1 (Homo sapiens, UniProt P30989); assay type: functional;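 further: Image-based confirmatory dose-response assay measuring agonist activity at NTR1; NTR1-expressing U2OS osteosarcoma cells imaged for beta-arrestin GFP spot formation; agonist potency where compounds increase beta-arrestin recruitment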
[4] = biological target: T2, Endoribonuclease toxin MazF; assay: substrate-only fluorescence increase artefacts – biochemical, single-stranded RNase substrate, counter-screen for MazEF activator project, dose response (AID 588502); assay type: functional
[5] = biological target: T3, RNA-binding protein pos-1 (Caenorhabditis elegans, UniProt G5EF15); assay: disruptors of C. elegans POS-1 RNA interaction – biochemical, fluorescence polarization, dose response (AID 1964);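 further: purified POS-1 fused to maltose binding protein made in E. coli; potency of compounds blocking POS-1 binding to fluorescent RNA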
T3 sequence (G5EF15 whole entry): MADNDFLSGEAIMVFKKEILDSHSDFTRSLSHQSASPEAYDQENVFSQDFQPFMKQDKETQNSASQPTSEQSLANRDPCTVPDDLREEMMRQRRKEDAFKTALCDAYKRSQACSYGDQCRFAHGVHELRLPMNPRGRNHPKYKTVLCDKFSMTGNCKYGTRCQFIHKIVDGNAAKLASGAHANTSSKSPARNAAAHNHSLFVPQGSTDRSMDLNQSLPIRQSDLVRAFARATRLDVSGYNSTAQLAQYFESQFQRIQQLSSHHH

[6] = biological target: G-protein coupled receptor 55 (Homo sapiens, UniProt Q9Y2T6); assay: selective activators of receptor GPR55 – imaging, U2OS cells, beta-arrestin-GFP redistribution, primary screen (AID 1961); assay type: functional
[7] = biological target: Hexokinase (Trypanosoma brucei, UniProt Q38C41); assay: Confirmation assay for inhibitors of Trypanosoma brucei hexokinase 1-Analogue-first series. [Related pubchem assays (depositor defined):AID1430, AID1632, AID2516, AID2560, AID2579, AID2600, AID449725, AID492951]; assay type: functional
[8] = biological target: T4, Intestinal-type alkaline phosphatase (Homo sapiens, UniProt P09923); assay: human intestinal alkaline phosphatase activators, dose response, biochemical, luminescence, uHTS hits (AID 463120); assay type: functional
[9] = biological target: T5, Alkaline phosphatase, tissue-nonspecific isozyme (Homo sapiens, UniProt P05186); assay: activation of tissue-nonspecific alkaline phosphatase – biochemical, TNAP isozyme, human IAP uHTS hits, selectivity assay for human IAP activator project, dose response (AID 488886); assay type: functional;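 further: potency of compounds raising TNAP activity as a selectivity check on IAP activators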
T5 sequence (P05186 whole entry): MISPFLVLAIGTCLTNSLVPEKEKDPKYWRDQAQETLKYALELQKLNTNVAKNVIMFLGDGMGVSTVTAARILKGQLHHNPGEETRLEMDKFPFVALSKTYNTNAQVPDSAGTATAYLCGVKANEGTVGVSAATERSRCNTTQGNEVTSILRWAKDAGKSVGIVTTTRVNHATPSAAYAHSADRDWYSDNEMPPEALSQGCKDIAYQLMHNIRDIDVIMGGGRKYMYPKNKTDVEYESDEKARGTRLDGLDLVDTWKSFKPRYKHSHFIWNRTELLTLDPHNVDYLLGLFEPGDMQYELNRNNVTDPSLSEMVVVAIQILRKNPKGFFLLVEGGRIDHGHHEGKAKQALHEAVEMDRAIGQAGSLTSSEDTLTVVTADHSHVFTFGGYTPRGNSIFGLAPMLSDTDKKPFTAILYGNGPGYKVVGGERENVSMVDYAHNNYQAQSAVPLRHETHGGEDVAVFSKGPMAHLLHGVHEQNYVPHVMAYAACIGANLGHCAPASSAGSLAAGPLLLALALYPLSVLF

[10] = biological target: Intestinal-type alkaline phosphatase (Mus musculus, UniProt P24822); assay: PubChem AID 488875; assay type: functional
[11] = biological target: T4, Intestinal-type alkaline phosphatase; assay: activation of human intestinal alkaline phosphatase – biochemical, luminescent, uHTS hits, set 2, dose response (AID 488817); assay type: functional;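 further: potency of activators that raise enzyme activity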
[12] = biological target: Dual specificity protein phosphatase 3 (Homo sapiens, UniProt P51452); assay: SAR VHR1 Fluorescent Assay for In Vitro dose response studies. [Related pubchem assays (depositor defined):AID1654, AID1661, AID1878, AID1992, AID2004, AID2070, AID2085]; assay type: functional
[13] = biological target: Heat shock 70 kDa protein 1A (Homo sapiens, UniProt P0DMV8); assay: inhibition of Hsp70 binding activity – biochemical, fluorescence polarization, SAR follow-up (AID 1072)
[14] = biological target: Heat shock cognate 71 kDa protein (Homo sapiens, UniProt P11142); assay: In Vitro Hsc70 Dose Response Fluorescence Polarization Assay. [Related pubchem assays: 1072 ]
[15] = biological target: T6, Dual specificity protein phosphatase 6 (Rattus norvegicus, UniProt Q64346);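 further: in vitro confirmatory secondary MKP-3 assay designed to detect irreversible or slow-binding inhibitors; recombinant His-tagged rat MKP-3 acting on the substrate OMFP; inhibitor potency from reduced phosphatase rate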
T6 sequence (Q64346 whole entry): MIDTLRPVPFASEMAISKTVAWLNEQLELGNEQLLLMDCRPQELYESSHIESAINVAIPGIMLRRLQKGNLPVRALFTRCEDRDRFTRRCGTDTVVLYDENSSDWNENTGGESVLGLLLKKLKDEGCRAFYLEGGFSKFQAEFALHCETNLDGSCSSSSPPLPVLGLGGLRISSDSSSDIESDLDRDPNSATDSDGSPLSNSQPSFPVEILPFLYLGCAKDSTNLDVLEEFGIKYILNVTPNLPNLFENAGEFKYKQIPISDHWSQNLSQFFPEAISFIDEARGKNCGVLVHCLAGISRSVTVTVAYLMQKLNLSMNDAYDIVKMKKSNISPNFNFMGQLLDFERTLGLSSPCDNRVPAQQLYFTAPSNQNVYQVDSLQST

[16] = biological target: Glyceraldehyde-3-phosphate dehydrogenase (Homo sapiens, UniProt P04406)
[17] = biological target: T7, Tyrosine-protein phosphatase non-receptor type 7 (Homo sapiens, UniProt P35236); assay type: functional
T7 sequence (P35236 whole entry): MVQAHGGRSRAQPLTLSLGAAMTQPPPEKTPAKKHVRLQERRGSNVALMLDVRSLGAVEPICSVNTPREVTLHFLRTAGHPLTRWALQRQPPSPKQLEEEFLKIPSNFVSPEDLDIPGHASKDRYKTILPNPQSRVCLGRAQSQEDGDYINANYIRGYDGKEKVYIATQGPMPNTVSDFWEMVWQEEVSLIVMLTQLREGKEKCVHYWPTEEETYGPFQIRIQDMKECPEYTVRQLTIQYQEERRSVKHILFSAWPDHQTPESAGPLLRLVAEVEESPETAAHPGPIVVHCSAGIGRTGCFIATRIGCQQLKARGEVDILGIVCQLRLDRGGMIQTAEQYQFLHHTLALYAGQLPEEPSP

[18] = biological target: T7, Tyrosine-protein phosphatase non-receptor type 7; assay: redox-active compounds inhibiting HePTP phosphatase – biochemical, fluorescence, mechanism study (AID 2068); assay type: functional
[19] = biological target: T8, Trace amine-associated receptor 1 (Homo sapiens, UniProt Q96RJ0); assay: Fluorescence-based cell-based high throughput dose response assay to identify agonists of the human trace amine associated receptor 1 (TAAR1).; assay type: functional
T8 sequence (Q96RJ0 whole entry): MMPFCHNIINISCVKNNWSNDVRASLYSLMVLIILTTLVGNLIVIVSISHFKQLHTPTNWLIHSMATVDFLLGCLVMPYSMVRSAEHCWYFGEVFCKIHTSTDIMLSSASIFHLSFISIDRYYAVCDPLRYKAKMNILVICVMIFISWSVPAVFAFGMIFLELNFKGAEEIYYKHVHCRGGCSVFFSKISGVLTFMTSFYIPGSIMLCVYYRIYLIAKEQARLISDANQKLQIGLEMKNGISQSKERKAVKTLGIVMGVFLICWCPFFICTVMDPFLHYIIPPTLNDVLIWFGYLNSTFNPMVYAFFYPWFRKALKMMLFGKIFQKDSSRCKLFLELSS

[20] = biological target: Coagulation factor XII (Homo sapiens, UniProt P00748); assay: activated coagulation factor XII inhibitor potency, concentration-effect curve, cell-free (AID 716); assay type: functional
[21] = cells; assay type: functional, cell-based
[22] = biological target: T8, Trace amine-associated receptor 1; assay: Counterscreen for agonists of the human trace amine associated receptor 1 (hTAAR1): Fluorescence-based cell-based high throughput dose response assay to identify hTAAR1 agonist that also desensitize TAAR1 receptor response.; assay type: functional
[23] = cells; assay type: functional, cell-based; remark: listed apart in the source

T4 sequence (P09923 whole entry): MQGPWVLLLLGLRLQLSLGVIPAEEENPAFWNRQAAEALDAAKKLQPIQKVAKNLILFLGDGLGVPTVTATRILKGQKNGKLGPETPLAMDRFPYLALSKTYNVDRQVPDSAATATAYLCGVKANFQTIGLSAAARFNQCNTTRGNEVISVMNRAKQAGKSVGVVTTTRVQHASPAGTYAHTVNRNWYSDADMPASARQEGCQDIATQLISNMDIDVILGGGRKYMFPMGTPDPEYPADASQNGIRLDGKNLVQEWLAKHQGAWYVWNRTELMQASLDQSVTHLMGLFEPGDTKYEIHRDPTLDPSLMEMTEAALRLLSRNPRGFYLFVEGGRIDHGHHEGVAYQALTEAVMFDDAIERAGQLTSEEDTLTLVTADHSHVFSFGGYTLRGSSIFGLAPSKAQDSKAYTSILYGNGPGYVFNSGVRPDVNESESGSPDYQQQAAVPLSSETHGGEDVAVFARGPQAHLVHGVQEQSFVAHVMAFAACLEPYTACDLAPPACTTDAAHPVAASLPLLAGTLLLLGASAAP
Sequence of Heat shock cognate 71 kDa protein (P11142 whole entry): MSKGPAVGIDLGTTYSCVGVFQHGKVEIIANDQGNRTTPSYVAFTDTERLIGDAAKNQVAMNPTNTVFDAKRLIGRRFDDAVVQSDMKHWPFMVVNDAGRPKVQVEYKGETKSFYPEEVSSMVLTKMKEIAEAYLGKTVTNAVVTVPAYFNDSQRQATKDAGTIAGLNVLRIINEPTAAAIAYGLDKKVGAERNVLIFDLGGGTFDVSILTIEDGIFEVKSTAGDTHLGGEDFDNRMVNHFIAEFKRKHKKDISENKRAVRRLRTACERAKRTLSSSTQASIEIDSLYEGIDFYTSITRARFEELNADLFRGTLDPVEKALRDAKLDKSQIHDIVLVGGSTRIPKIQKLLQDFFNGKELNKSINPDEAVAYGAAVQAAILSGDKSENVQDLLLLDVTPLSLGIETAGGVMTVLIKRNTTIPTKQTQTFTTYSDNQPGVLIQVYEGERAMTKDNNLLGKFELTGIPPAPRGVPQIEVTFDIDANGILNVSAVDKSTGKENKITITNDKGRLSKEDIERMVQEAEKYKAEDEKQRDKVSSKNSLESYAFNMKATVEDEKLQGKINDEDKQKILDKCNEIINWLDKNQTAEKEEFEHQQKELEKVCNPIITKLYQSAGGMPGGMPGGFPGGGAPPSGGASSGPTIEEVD
Sequence of Hexokinase (Q38C41 whole entry): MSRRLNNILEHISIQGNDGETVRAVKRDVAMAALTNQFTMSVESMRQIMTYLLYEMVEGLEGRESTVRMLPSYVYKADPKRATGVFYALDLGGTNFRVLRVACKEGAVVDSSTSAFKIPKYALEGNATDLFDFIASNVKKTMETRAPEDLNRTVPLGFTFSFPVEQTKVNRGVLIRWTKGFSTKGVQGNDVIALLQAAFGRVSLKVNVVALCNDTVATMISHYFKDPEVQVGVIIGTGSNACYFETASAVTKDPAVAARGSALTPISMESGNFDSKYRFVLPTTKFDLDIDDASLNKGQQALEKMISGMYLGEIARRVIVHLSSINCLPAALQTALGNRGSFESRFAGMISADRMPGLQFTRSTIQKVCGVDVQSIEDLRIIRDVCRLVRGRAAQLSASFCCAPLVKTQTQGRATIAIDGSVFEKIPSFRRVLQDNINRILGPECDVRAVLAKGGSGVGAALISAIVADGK
Sequence of Intestinal-type alkaline phosphatase (Mus musculus, UniProt P24822) (P24822 whole entry): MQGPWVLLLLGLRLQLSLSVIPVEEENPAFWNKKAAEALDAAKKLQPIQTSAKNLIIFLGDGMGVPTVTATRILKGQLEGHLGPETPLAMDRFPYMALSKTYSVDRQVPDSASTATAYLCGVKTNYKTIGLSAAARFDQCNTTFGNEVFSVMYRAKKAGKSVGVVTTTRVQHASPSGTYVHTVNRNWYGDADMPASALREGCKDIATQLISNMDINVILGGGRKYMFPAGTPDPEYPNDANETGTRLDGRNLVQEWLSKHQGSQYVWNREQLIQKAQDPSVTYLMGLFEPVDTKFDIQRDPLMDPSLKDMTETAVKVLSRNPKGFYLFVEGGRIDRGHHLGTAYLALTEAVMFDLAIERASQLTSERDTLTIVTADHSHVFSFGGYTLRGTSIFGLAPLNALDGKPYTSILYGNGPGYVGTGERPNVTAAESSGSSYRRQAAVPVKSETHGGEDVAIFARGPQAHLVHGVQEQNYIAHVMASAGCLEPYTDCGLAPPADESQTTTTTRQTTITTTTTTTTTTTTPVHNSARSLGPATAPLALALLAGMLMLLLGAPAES
Sequence of Coagulation factor XII (P00748 20-372 limits assumed): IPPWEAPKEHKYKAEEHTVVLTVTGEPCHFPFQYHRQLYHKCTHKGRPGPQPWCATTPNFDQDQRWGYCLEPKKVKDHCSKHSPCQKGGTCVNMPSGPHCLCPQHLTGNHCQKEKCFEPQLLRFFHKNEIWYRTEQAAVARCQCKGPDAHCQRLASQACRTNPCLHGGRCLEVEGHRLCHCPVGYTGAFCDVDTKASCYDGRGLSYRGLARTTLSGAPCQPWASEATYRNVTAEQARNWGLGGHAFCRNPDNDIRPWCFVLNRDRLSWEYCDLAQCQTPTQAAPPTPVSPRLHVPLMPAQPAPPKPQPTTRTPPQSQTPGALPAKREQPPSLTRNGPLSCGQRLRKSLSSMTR
Sequence of Coagulation factor XII (P00748 373-615 limits assumed): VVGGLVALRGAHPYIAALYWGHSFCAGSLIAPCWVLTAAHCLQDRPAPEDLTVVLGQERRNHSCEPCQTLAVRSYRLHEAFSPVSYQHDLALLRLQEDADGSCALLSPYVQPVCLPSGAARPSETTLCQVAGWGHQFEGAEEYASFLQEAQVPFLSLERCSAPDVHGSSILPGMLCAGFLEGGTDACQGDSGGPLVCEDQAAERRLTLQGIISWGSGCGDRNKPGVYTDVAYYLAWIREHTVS
Sequence of Neurotensin receptor type 1 (P30989 whole entry): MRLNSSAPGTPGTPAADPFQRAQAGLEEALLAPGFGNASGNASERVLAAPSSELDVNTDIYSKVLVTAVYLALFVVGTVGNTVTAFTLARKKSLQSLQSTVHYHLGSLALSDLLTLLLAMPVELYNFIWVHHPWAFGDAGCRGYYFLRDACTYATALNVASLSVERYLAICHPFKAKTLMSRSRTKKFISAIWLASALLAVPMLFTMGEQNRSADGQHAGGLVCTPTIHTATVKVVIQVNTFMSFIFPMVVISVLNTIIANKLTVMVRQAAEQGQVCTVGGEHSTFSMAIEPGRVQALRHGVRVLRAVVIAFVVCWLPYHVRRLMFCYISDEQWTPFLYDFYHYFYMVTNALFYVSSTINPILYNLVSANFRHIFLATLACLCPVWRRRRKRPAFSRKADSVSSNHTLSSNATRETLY
Sequence of Dual specificity protein phosphatase 3 (P51452 whole entry): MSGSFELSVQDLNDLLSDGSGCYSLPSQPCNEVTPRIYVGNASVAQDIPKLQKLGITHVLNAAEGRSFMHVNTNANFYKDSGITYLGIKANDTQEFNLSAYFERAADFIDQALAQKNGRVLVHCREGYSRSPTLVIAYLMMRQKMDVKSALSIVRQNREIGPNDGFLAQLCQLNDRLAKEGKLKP
Sequence of G-protein coupled receptor 55 (Q9Y2T6 whole entry): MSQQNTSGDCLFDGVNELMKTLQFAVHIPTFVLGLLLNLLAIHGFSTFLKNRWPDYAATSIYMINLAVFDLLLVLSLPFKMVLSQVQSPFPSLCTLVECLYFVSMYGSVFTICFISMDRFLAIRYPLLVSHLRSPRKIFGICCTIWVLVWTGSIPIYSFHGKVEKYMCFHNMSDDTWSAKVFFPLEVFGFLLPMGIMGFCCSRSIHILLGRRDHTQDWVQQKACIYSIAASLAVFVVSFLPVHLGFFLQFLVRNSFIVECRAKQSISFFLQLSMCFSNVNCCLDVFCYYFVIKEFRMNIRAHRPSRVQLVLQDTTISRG
Sequence of Heat shock 70 kDa protein 1A (P0DMV8 whole entry): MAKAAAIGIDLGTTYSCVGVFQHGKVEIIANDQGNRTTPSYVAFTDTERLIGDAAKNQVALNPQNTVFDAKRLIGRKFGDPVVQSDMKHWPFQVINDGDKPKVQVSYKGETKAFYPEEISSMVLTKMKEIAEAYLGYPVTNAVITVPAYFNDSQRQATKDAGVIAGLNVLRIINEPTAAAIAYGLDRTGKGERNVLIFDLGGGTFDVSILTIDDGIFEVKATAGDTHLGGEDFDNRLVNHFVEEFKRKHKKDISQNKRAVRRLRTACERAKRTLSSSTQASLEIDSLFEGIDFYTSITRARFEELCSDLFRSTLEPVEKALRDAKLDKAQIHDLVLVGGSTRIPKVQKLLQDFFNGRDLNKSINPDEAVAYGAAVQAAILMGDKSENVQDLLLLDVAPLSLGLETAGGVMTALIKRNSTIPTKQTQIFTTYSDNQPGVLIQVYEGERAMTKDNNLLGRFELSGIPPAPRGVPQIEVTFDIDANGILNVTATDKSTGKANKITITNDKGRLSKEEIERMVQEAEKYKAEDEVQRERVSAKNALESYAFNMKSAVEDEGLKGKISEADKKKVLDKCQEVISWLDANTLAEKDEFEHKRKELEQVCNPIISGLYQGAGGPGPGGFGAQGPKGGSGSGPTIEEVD
Sequence of Glyceraldehyde-3-phosphate dehydrogenase (P04406 whole entry): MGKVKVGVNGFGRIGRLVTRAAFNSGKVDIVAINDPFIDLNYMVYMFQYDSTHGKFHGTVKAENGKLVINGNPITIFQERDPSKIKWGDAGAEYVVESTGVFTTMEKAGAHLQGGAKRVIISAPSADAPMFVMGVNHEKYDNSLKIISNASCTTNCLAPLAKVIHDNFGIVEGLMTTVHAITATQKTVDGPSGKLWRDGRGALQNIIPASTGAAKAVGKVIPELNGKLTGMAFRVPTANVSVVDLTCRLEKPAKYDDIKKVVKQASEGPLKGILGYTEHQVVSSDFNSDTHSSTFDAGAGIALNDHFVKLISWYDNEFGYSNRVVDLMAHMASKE

In the case of `COc1cc2c3nnc(-c4ccccc4)c-3cn(Cc3ccccc3F)c2cc1OC`, the EC50 [1] is reported as > 300 µM (inconclusive), the EC50 [2] is reported as > 99 µM (inactive) and the EC50 [3] is reported as 5.8 µM (active). The EC50 [4] was 34.6 µM (inactive), the EC50 [5] was > 300 µM (not active) and the EC50 [6] was 0.807 µM (active).

With `CCc1ccc(C(=O)Nc2cc(Cl)ccc2C(=O)O)cc1` the IC50 [7] was 3.04 µM (active).

With `COc1cc(CN2CCC(n3nccc3NC(=O)CCCc3ccccc3)CC2)ccc1F` the EC50 [8] was 68.7 µM (active), the EC50 [9] was 66.1 µM (active) and the EC50 [10] was 58.2 µM (active). The EC50 [11] was 79.7 µM (active).

With `O=C1c2ccccc2CC1Sc1nnc(-c2ccco2)c(-c2ccco2)n1` (stereo not drawn) the IC50 [12] was 27.9 µM (active), the IC50 [13] was > 100 µM (not active) and the IC50 [14] was > 100 µM (not active). For the same compound, the IC50 [15] was 42.1 µM (active), the IC50 [16] was > 100 µM (not active) and the IC50 [17] was 8.11 µM (active). The IC50 [18] was 1.12 µM (active).

For `O=C(O)C1CCCCC1C(=O)NCCc1ccccc1` (stereo not drawn), the EC50 [19] was 1.42 µM (active), the IC50 [20] was > 50 µM (inactive) and the EC50 [21] was > 29.9 µM (inactive). For the same compound, the IC50 [22] was 8.04 µM (active) and the IC50 [23] was > 29.9 µM (inactive).
